SMILES strings stand for the structures. Activity calls are given as the source filed them. No cut-off for these calls is given here.

The test system of experiment [1] is Plasmodium falciparum. Description: Antiplasmodial activity against erythrocytic stage of chloroquine-resistant Plasmodium falciparum W2 measured after 48 hrs by flow cytometry. The class given is functional, organism-based. The following applies: W2, 48 h.
Another experiment deals with Plasmodium berghei. In words: Antiplasmodial activity against hepatic stage Plasmodium berghei infected in Huh-7 cells assessed as cell viability incubated for 1 hrs and measured by 48 hrs by bioluminescence assay. The format is functional, organism-based.
The subject of experiment [2] is Plasmodium falciparum. Description: Inhibition of plasmodium falciparum 3D7 ATP4 ATPase activity under low-soidum conditions at 50 uM.
In experiment [3] the test system is Plasmodium falciparum. Description: Antiplasmodial activity against Plasmodium falciparum 3D7 measured after 72 hrs by parasite proliferation assay. The class given is functional, organism-based. The following applies: 3D7, 72 h.
Experiment [4] deals with Plasmodium falciparum. Description: Inhibition of plasmodium falciparum 3D7 ATP4 ATPase activity under high-soidum conditions at 50 uM.
In experiment [5] the test system is Plasmodium falciparum. In words: Inhibition of plasmodium falciparum 3D7 ATP4 ATPase activity under high-soidum conditions at 125 nM.
The subject of experiment [6] is Plasmodium falciparum. Description: Antiplasmodial activity against Plasmodium falciparum 3D7 assessed as effect on cytosolic sodium concentration at 50 nM measured after 90 mins by SBFI-dye based fluorescence method. The class given is functional, organism-based.

As for `CC(C)(C)C1=NN(c2cccc(Cl)c2)C2(O1)C(=O)Nc1ccc(Br)cc12` (stereo unspecified), the IC50 was 7.5 µM in the experiment on Plasmodium falciparum [1] and 9 µM in the experiment with Plasmodium berghei. Regarding `O=C1Nc2ccc(Cl)cc2C12OC(c1cccc(Cl)c1)=NN2c1ccccc1` (stereo unspecified), in the experiment with Plasmodium falciparum [1], the IC50 was above 10 µM.

Molecule `O=C1Nc2ccc(Br)cc2C12OC(c1ccc(Cl)cc1)=NN2c1ccccc1` (stereo unspecified) returned an IC50 in the experiment on Plasmodium falciparum [1] above 10 µM. The same measure, in the same setting: to `CC(C)(C)C1=NN(c2ccccc2Cl)C2(O1)C(=O)Nc1ccc(Cl)cc12` (stereo unspecified) belongs above 10 µM; to `O=C1Nc2c(Cl)cccc2C12OC(c1cccc(Cl)c1)=NN2c1cccc(Cl)c1` (stereo unspecified), above 10 µM; to `O=C1Nc2c(Cl)cccc2C12OC(c1ccccc1)=NN2c1cccc(Cl)c1` (stereo unspecified), above 10 µM. `O=C1Nc2ccc(Cl)cc2C12OC(c1ccc(Cl)cc1)=NN2c1ccccc1` (stereo unspecified) showed an IC50 in the experiment with Plasmodium falciparum [1] above 10 µM. In turn, `O=C1Nc2c(Cl)cccc2C12OC(c1cccc(Cl)c1)=NN2c1ccccc1` (stereo unspecified) gave an IC50 with Plasmodium falciparum [1] above 10 µM.

`O=C1Nc2cc(Br)ccc2C12OC(c1ccccc1)=NN2c1cccc(Cl)c1` (stereo unspecified) came in with an IC50 in the experiment on Plasmodium falciparum [1] above 10 µM. `O=C1Nc2ccc(Br)cc2C12OC(c1cccc(Cl)c1)=NN2c1ccccc1` (stereo unspecified): in the experiment on Plasmodium falciparum [1], the IC50 was above 10 µM.

In the case of `O=C1Nc2c(Cl)cccc2C12OC(c1ccc(Cl)cc1)=NN2c1ccccc1` (stereo unspecified), the IC50 in the experiment on Plasmodium falciparum [1] was above 10 µM. Turning to `O=C1Nc2cc(Cl)ccc2C12OC(c1ccccc1)=NN2c1cccc(Cl)c1` (stereo unspecified), the values for the 50% inhibitory concentration (IC50) with Plasmodium falciparum [1] and in the experiment with Plasmodium berghei were 8.6 µM and 7.2 µM, respectively. Turning to `O=C1Nc2ccc(Br)cc2C12OC(c1ccccc1)=NN2c1ccc(Cl)cc1` (stereo unspecified), the inhibition result with Plasmodium falciparum [2] and in the experiment with Plasmodium falciparum [4] was “Active” in each case. Besides, the IC50 in the experiment with Plasmodium falciparum [1] was 6 µM; in the experiment with Plasmodium falciparum [3] it was 6.2 µM; in the experiment on Plasmodium berghei, 4.1 µM.

On to `CC(C)(C)C1=NN(c2cccc(Cl)c2)C2(O1)C(=O)Nc1ccc(Cl)cc12` (stereo unspecified), for which the results for the IC50 with Plasmodium falciparum [1] and with Plasmodium berghei were 3.5 µM and 5.3 µM, respectively. `O=C1Nc2ccc(Br)cc2C12OC(c1ccccc1)=NN2c1cccc(Cl)c1` (stereo unspecified): the results for the IC50 with Plasmodium falciparum [1] and in the experiment with Plasmodium berghei were 6.7 µM and 3.9 µM, respectively. As to `O=C1Nc2ccc(Cl)cc2C12OC(c1ccccc1)=NN2c1cccc(Cl)c1` (stereo unspecified), the IC50 with Plasmodium falciparum [1] turned out to be 6.4 µM; in the experiment with Plasmodium berghei it was 7 µM. In the experiment with Plasmodium falciparum [1], `COc1ccc(C2=NN(c3ccccc3)C3(O2)C(=O)Nc2ccccc23)cc1` (stereo unspecified) had an IC50 above 10 µM. On to `COc1ccc(C2=NN(c3ccccc3)C3(O2)C(=O)Nc2ccc(Br)cc23)cc1` (stereo unspecified), for which the IC50 is 8.3 µM with Plasmodium falciparum [1] and above 10 µM in the experiment with Plasmodium berghei. Molecule `O=C1Nc2ccccc2C12OC(c1cccc(Cl)c1)=NN2c1ccccc1` (stereo unspecified) had an IC50 in the experiment on Plasmodium falciparum [1] above 10 µM. On to `CC(C)(C)C1=NN(c2ccccc2Cl)C2(O1)C(=O)Nc1ccc(Br)cc12` (stereo unspecified), for which the half-maximal inhibitory concentration (IC50) in the experiment on Plasmodium falciparum [1] was above 10 µM. `COc1ccc(C2=NN(c3ccccc3)C3(O2)C(=O)Nc2ccc(Cl)cc23)cc1` (stereo unspecified) showed a concentration for half-maximal inhibition (IC50) in the experiment with Plasmodium falciparum [1] above 10 µM. For the molecule `CC(C)(C)C1=NN(c2cccc(Cl)c2)C2(O1)C(=O)Nc1cc(Br)ccc12` (stereo unspecified), the values for the IC50 in the experiment with Plasmodium falciparum [1] and with Plasmodium berghei were 4.6 µM and 9.5 µM, respectively.

Take `CC(C)(C)C1=NN(c2cccc(Cl)c2)C2(O1)C(=O)Nc1cc(Cl)ccc12` (stereo unspecified): the values for the IC50 in the experiment on Plasmodium falciparum [1] and with Plasmodium berghei were 3.8 µM and above 10 µM, respectively.

For `O=C1Nc2c(Cl)cccc2C12OC(c1ccccc1)=NN2c1ccc(Cl)cc1` (stereo unspecified), the IC50 in the experiment on Plasmodium falciparum [1] is 7.6 µM; in the experiment with Plasmodium berghei it was above 10 µM. As for `C[C@H]1Cc2c([nH]c3cc(Cl)c(F)cc23)[C@@]2(N1)C(=O)Nc1ccc(Cl)cc12`, the inhibition result in the experiment with Plasmodium falciparum [5] is “Active”. Also, the outcome in the experiment on Plasmodium falciparum [6] was Active.

As to `COc1ccc(C2=NN(c3ccccc3)C3(O2)C(=O)Nc2c(Cl)cccc23)cc1` (stereo unspecified), in the experiment on Plasmodium falciparum [1], the IC50 was above 10 µM. Same read-out and setting: next, `O=C1Nc2ccccc2C12OC(c1ccccc1)=NN2c1cccc(Cl)c1` (stereo unspecified): above 10 µM.
